# Measurements reported in patent publication US7115258B2, “Vesicular monoamine transporter gene therapy in parkinson's disease” (priority 1998, dated 2006).
# Test system: dopamine release
# Experiment: Release of stored dopamine from PFVMAA cells
# Type: cell-based, rat
# Settings: 20 μM A23187 in physiological media, 20 minutes
# Experimental: FIG. 3A and FIG. 3B. Release of stored dopamine from PFVMAA. (FIG. 3A) Time course of dopamine release from PFVMAA cells that were preincubated with 1 μM of L-DOPA for 2 hours to store dopamine (intracellular: open bar). After pre-incubation, the media was replaced with fresh media without L-DOPA and dopamine levels in the media (solid bar) were measured at one hour intervals. (FIG. 3B) The dopamine levels in the media (solid bar) and in the cell pellets (open bars) of PFVMAA cells in different calcium conditions. Cells were preincubated with 1 μM L-DOPA in the media for 3 hours, which were replaced with fresh physiological media (control), physiological media with 20 μM A23187 (Sigma), or by calcium-free media with 10 mM EGTA for 20 minutes of further incubation. Data represent the mean±SEM (n=3). n.d., nondetectable levels. n.s., no significant, * p<0.01, Student t-test analysis.
# Catecholamine measurements were done in DMEM media (1 ml in each well) except for the experiments on Ca^++ effect which were done in physiological incubation medium consisting of 135 mM NaCl, 3 mM KCl, 2 mM CaCl2, 2 mM MgCl2, 10 mM glucose, 200 μM ascorbic acid, and 10 mM HEPES, pH 7.3.
# To investigate the mechanism of dopamine release in the PFVMAA cells, intracellular calcium was manipulated by using calcium-free media and calcium ionophore. […]
compound,measurement,value
"CNc1ccc2oc(C[C@H]3O[C@@]4(CC[C@H]3C)O[C@H]([C@H](C)C(=O)c3ccc[nH]3)[C@H](C)C[C@H]4C)nc2c1C(=O)O [calcium ionophore, A23187]",effect on dopamine release from PFVMAA cells,trend for increased release of dopamine
